Broadly, the Papp is a coefficient for how fast a substance crosses the barrier. For orientation: clearance means a measure of how efficiently the substance is removed, as volume per time. As a reminder, the bioavailability is dose-corrected exposure relative to a reference, in per cent. What is called half-life is the time in which the quantity being followed falls by half.

This is an account of results in ChEMBL document CHEMBL1157535, “2-Aminobenzophenones as a novel class of bradykinin B1 receptor antagonists” (J Med Chem, 2008).

The test system of data set [1] is Brain. Kind of data set: Drug level in transgenic rat brain at 12 mg/kg, iv. It is filed as ADME, organism-based. The arrangement: dose 12 mg/kg, route intravenous. As to conditions: in vivo.
For data set [2], the species on record is Rattus norvegicus. Particulars: in vivo.
Data set [3] relates to Plasma. Kind of data set: Drug level in transgenic rat plasma at 0.12 mg/kg, iv. As to conditions: in vivo. In kind it is ADME, organism-based. The arrangement: dose 0.12 mg/kg, route intravenous.
Data set [4] deals with Brain. The data set is described as follows: Drug level in transgenic rat brain at 1.2 mg/kg, iv. The arrangement: dose 1.2 mg/kg, route intravenous. It is filed as ADME, organism-based. Particulars: in vivo.
Data set [5] has as its system Spinal cord. Kind of data set: Drug level in transgenic rat spinal cord at 0.12 mg/kg, iv. In kind it is ADME, organism-based. Further details: dose 0.12 mg/kg, route intravenous. Particulars: in vivo.
Data set [6] has as its system human MDR1 (P-gp). The data set is described as follows: (§1) Apparent permeability in pig LLC-PK1 cells transfected with human MDR1. In kind it is ADME, cell-based, Sus scrofa. Particulars: LLC-PK1.
Data set [7] concerns Spinal cord. The data set is described as follows: Drug level in transgenic rat spinal cord at 12 mg/kg, iv. It is filed as ADME, organism-based. The arrangement: dose 12 mg/kg, route intravenous. Particulars: in vivo.
Data set [8] is described as follows: in vivo. As to conditions: Sprague-Dawley, rat, iv, 2 mg/kg.
The test system of data set [9] is Brain. The data set is described as follows: Drug level in transgenic rat brain at 0.12 mg/kg, iv. It is filed as ADME, organism-based. The arrangement: dose 0.12 mg/kg, route intravenous. As to conditions: in vivo.
In data set [10] the test system is Plasma. Kind of data set: Drug level in transgenic rat plasma at 1.2 mg/kg, iv. It is filed as ADME, organism-based. Further details: dose 1.2 mg/kg, route intravenous. As to conditions: in vivo.
A short description of data set [11]: in vivo. Particulars: mongrel, dog, iv, 0.25 mg/kg, CL.
Data set [12] can be described thus: in vivo. Particulars: Sprague-Dawley, rat, po, 10 mg/kg, F.
For data set [13], the system named is Plasma. The data set is described as follows: Drug level in transgenic rat plasma at 12 mg/kg, iv. It is filed as ADME, organism-based. The arrangement: dose 12 mg/kg, route intravenous. As to conditions: in vivo.
Data set [14] deals with Spinal cord. Kind of data set: Drug level in transgenic rat spinal cord at 1.2 mg/kg, iv. The arrangement: dose 1.2 mg/kg, route intravenous. Particulars: in vivo. It is filed as ADME, organism-based.
The nature of data set [15]: in vivo. Particulars: mongrel, dog, iv, 0.25 mg/kg, t1/2.
Data set [16] can be described thus: in vivo. As to conditions: Sprague-Dawley, rat, t1/2.
Data set [17] can be described thus: Metabolic stability in Sprague-Dawley rat liver microsomes after 30 mins. In kind it is ADME, Microsome. As to conditions: read-out: Stability. In general terms: Liver microsomes are vesicles of endoplasmic reticulum, rich in cytochrome P450 enzymes.
Data set [18] is described as follows: Metabolic stability in human liver microsomes after 30 mins. In kind it is ADME, Microsome. Particulars: read-out: Stability.
Data set [19] in a line: Metabolic stability in Beagle dog liver microsomes after 30 mins. Particulars: read-out: Stability. In kind it is ADME, Canis lupus familiaris, Microsome.
Data set [20] can be described thus: Metabolic stability in monkey liver microsomes after 30 mins. As to conditions: rhesus monkey, read-out: Stability. In kind it is ADME, Macaca mulatta, Microsome.
For data set [21], the species on record is Canis familiaris. As to conditions: dog, in vivo, iv, 0.25 mg/kg.
In data set [22] the test system is LLC-PK1. The description is as §1. As to conditions: llc-pk1. It is filed as ADME, cell-based, Sus scrofa.
Data set [23] is filed under the species Rattus norvegicus. Particulars: in vivo, po, 10 mg/kg.

For the molecule `O=C(Nc1ccc(S(=O)(=O)Nc2ccccc2C(=O)c2ccccc2)cc1)OCC1CCCO1` (stereo not drawn), the concentration in data set [1] came to 5840 nM; in data set [3], 80 nM; in [4] it was 438 nM; in data set [5] it was 97 nM; in data set [7] it was 9430 nM; in [9], 70 nM. The concentration in data set [10] is 995 nM; in [13] it was 13200 nM; in data set [14], 597 nM. In data set [2], this molecule yielded a t1/2 of 9.7 h. The Papp in data set [6] worked out at 26 ×10⁻⁶ cm/s. Further, the clearance in data set [8] was 43 mL/min/kg; in [11] it was 17 mL/min/kg. This molecule also returned a bioavailability in data set [12] of 3%. Moreover, the half-life in data set [15] is 1.9 h.

As for `CC(=O)Nc1ccc(S(=O)(=O)Nc2ccccc2C(=O)c2ccccn2)cc1`, the clearance in data set [8] is 24 mL/min/kg; in data set [11] it was 1.2 mL/min/kg. Besides, the half-life in data set [16] and in data set [15] was 1.2 h throughout. The molecule also registered a bioavailability in data set [12] of 11%.

On to `CC(=O)Nc1ccc(S(=O)(=O)Nc2ccccc2C(=O)c2ccccc2)cc1`, for which the t1/2 in data set [2] came out at 0.3 h. Besides, in [6], the Papp was 27 ×10⁻⁶ cm/s. The remaining at 0.5 h in data set [17], in [18], in data set [19] and in data set [20] was under 10% each time. For the same molecule, the clearance in [8] was determined as 26 mL/min/kg; in data set [11] it was 7.5 mL/min/kg. This molecule also gave a bioavailability in [12] of 3%. The half-life in data set [15] is 0.5 h.

On to `O=C(NCCCN1CCCCC1)Nc1ccc(S(=O)(=O)Nc2ccccc2C(=O)c2ccccc2)cc1`, for which the t1/2 in data set [2] came to 14 h. In data set [6], the Papp was found to be 34 ×10⁻⁶ cm/s. In addition, the clearance in data set [8] worked out at 29 mL/min/kg; in [11] it was 17 mL/min/kg. For the same molecule, the bioavailability in [12] came to 41%. In data set [15], this molecule gave a half-life of 1.5 h.

`O=C(Nc1ccc(S(=O)(=O)Nc2ccccc2C(=O)c2ccccn2)cc1)OCC1CCCO1` (racemic): the t1/2 in data set [2] and in data set [21] was 1.4 h in each case. For the same molecule, the Papp in data set [22] was found to be 31 ×10⁻⁶ cm/s. The molecule also showed a F in data set [23] of 17%.

`O=C(Nc1ccc(S(=O)(=O)Nc2ccccc2C(=O)c2ccccn2)cc1)OCC1CCCO1` (stereo in doubt; 28): the t1/2 in data set [21] was determined as 2.6 h.

As for `O=C(Nc1ccc(S(=O)(=O)Nc2ccccc2C(=O)c2ccccn2)cc1)OCC1CCCO1` (stereo in doubt; 29), in [6], the Papp was 33 ×10⁻⁶ cm/s. Besides, the clearance in data set [8] was found to be 40 mL/min/kg; in data set [11], 2.9 mL/min/kg. Also, the half-life in data set [16] was 1.7 h; in data set [15] it was 2.2 h. The same molecule gave a F in [23] of 3%.

In turn, `O=C(Nc1ccc(S(=O)(=O)Nc2ccccc2C(=O)c2ccc(F)cn2)cc1)OCC1CCCO1` (stereo in doubt; 30) gave a t1/2 in data set [21] of 1.8 h. Also, in data set [6], the Papp stood at 26 ×10⁻⁶ cm/s.

For `O=C(Nc1ccc(S(=O)(=O)Nc2ccccc2C(=O)c2ccc(F)cn2)cc1)OCC1CCCO1` (stereo in doubt; 32), in [8], the clearance was found to be 26 mL/min/kg. Also, the half-life was 1.1 h in [16] and 2.8 h in data set [15]. The molecule also registered a bioavailability in data set [12] of under 1%.
